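Exposure lasted 48 hours, with cells grown in 96-well plates and compounds tested at five concentrations. Here, GI50 denotes the concentration required for 50% inhibition of growth.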 Active and inactive are the calls of the source. Cut-off read from the data, not from the text of the source: active = GI50 up to about 1.1 µM and inactive = higher.
What was measured:
Experiment in all cases: growth of human tumour cells (NCI), 48 h
[1] = tested on: NCI/ADR-RES
[2] = tested on: BT-549
[3] = tested on: SK-MEL-2
[4] = tested on: RXF 393
[5] = tested on: HOP-92
[6] = tested on: RPMI-8226
[7] = tested on: A549
[8] = tested on: UACC-62
[9] = tested on: OVCAR-8
[10] = tested on: KM12
[11] = tested on: HL-60
[12] = tested on: TK-10
[13] = tested on: SF-295
[14] = tested on: OVCAR-5
[15] = tested on: SW-620
[16] = tested on: HCC 2998
[17] = tested on: M14
[18] = tested on: MCF7
[19] = tested on: SN12C
[20] = tested on: SK-MEL-28
[21] = tested on: MOLT-4
[22] = tested on: NCI-H522
[23] = tested on: 786-0
[24] = tested on: EKVX
[25] = tested on: Malme-3M
[26] = tested on: NCI-H226
[27] = tested on: SR
[28] = tested on: T47D
[29] = tested on: PC-3
[30] = tested on: CCRF-CEM
[31] = tested on: HOP-62
[32] = tested on: NCI-H23
[33] = tested on: SK-OV-3
[34] = tested on: UACC-257
[35] = tested on: A498
[36] = tested on: HCT-116
[37] = tested on: LOX IMVI
[38] = tested on: UO-31
[39] = tested on: CAKI-1
[40] = tested on: MDA-MB-435
[41] = tested on: SNB-19
[42] = tested on: ACHN
[43] = tested on: K562
[44] = tested on: SK-MEL-5
[45] = tested on: HCT-15
[46] = tested on: OVCAR-3
[47] = tested on: U-251
[48] = tested on: SF-268
[49] = tested on: MDA-N
[50] = tested on: NCI-H460
[51] = tested on: OVCAR-4
[52] = tested on: MDA-MB-231
[53] = tested on: HT-29
[54] = tested on: COLO 205
[55] = tested on: IGROV-1
[56] = tested on: SF-539
[57] = tested on: SNB-75
[58] = tested on: DU-145
[59] = tested on: Hs-578T
[60] = tested on: KM-20L2
[61] = tested on: XF498
[62] = tested on: DMS-114
[63] = tested on: M19-MEL
[64] = tested on: DMS-273
[65] = tested on: DLD-1
[66] = tested on: LXFL 529

## CCCCCCc1cc2cc(-c3csc(CC#N)n3)c(=O)oc2cc1O
[1]
  GI50: 6.35 µM (inactive)
[2]
  GI50: 6.17 µM (inactive)
[3]
  GI50: > 100 µM (inactive)
[4]
  GI50: > 33.2 µM (inactive)
[5]
  GI50: 7.48 µM (inactive)
[6]
  GI50: 32.4 µM (inactive)
[7]
  GI50: > 100 µM (inactive)
[8]
  GI50: 14.4 µM (inactive)
[9]
  GI50: 13 µM (inactive)
[10]
  GI50: 22.5 µM (inactive)
[11]
  GI50: > 44.3 µM (inactive)
[12]
  GI50: > 100 µM (inactive)
[13]
  GI50: 36.6 µM (inactive)
[14]
  GI50: > 100 µM (inactive)
[15]
  GI50: 26.2 µM (inactive)
[16]
  GI50: > 100 µM (inactive)
[17]
  GI50: > 100 µM (inactive)
[18]
  GI50: > 49.4 µM (inactive)
[19]
  GI50: 99.1 µM (inactive)
[20]
  GI50: > 100 µM (inactive)
[21]
  GI50: 43.1 µM (inactive)
[22]
  GI50: 10.4 µM (inactive)
[23]
  GI50: 7.62 µM (inactive)
[24]
  GI50: > 100 µM (inactive)
[25]
  GI50: > 100 µM (inactive)
[26]
  GI50: 22.9 µM (inactive)
[27]
  GI50: > 56.6 µM (inactive)
[28]
  GI50: > 100 µM (inactive)
[29]
  GI50: > 100 µM (inactive)
[30]
  GI50: > 49.2 µM (inactive)
[31]
  GI50: 34.9 µM (inactive)
[32]
  GI50: 22.1 µM (inactive)
[33]
  GI50: 13.3 µM (inactive)
[34]
  GI50: > 100 µM (inactive)
[35]
  GI50: 56 µM (inactive)
[36]
  GI50: 5.89 µM (inactive)
[37]
  GI50: > 100 µM (inactive)
[38]
  GI50: 27 µM (inactive)
[39]
  GI50: > 44.6 µM (inactive)
[40]
  GI50: > 100 µM (inactive)
[41]
  GI50: 14.4 µM (inactive)
[42]
  GI50: 21.9 µM (inactive)
[43]
  GI50: > 69.2 µM (inactive)
[44]
  GI50: 32.7 µM (inactive)
[45]
  GI50: > 100 µM
[46]
  GI50: 11.1 µM (inactive)
[47]
  GI50: 6.4 µM (inactive)
[48]
  GI50: 18.7 µM (inactive)
[49]
  GI50: > 100 µM (inactive)
[50]
  GI50: 8.55 µM (inactive)
[51]
  GI50: 3.45 µM (inactive)
[52]
  GI50: 11.7 µM (inactive)
[53]
  GI50: > 100 µM (inactive)
[54]
  GI50: > 100 µM (inactive)
[55]
  GI50: 29.8 µM (inactive)
[56]
  GI50: 5.71 µM (inactive)
[57]
  GI50: 32.1 µM (inactive)
[58]
  GI50: > 100 µM (inactive)
[59]
  GI50: 12.4 µM (inactive)

## CC(C)(C)OC(=O)N/C=C1\C(=O)Oc2ccccc2C1=O
[1]
  GI50: 41.4 µM (inactive)
[2]
  GI50: 33.7 µM (inactive)
[3]
  GI50: 14.6 µM (inactive)
[4]
  GI50: 23.2 µM (inactive)
[5]
  GI50: 45.3 µM (inactive)
[6]
  GI50: > 100 µM (inactive)
[7]
  GI50: 39.6 µM (inactive)
[8]
  GI50: 38.4 µM (inactive)
[9]
  GI50: 40.6 µM (inactive)
[10]
  GI50: 37.9 µM (inactive)
[11]
  GI50: > 100 µM (inactive)
[12]
  GI50: 14.6 µM (inactive)
[13]
  GI50: 38.5 µM (inactive)
[14]
  GI50: 46.8 µM (inactive)
[15]
  GI50: 38.5 µM (inactive)
[16]
  GI50: 54 µM (inactive)
[17]
  GI50: 35.6 µM (inactive)
[18]
  GI50: 70.8 µM (inactive)
[19]
  GI50: 24.5 µM (inactive)
[20]
  GI50: 45.1 µM (inactive)
[21]
  GI50: > 100 µM (inactive)
[22]
  GI50: < 0.01 µM (active)
[23]
  GI50: 34.6 µM (inactive)
[24]
  GI50: 47.6 µM (inactive)
[25]
  GI50: 31.3 µM (inactive)
[26]
  GI50: 20.7 µM (inactive)
[27]
  GI50: > 100 µM (inactive)
[28]
  GI50: 24 µM (inactive)
[29]
  GI50: 32.3 µM (inactive)
[30]
  GI50: > 100 µM (inactive)
[31]
  GI50: 17.1 µM (inactive)
[32]
  GI50: 42.4 µM (inactive)
[33]
  GI50: 0.0294 µM (active)
[34]
  GI50: 31.3 µM (inactive)
[35]
  GI50: 8.36 µM (inactive)
[36]
  GI50: 36 µM (inactive)
[37]
  GI50: 37.8 µM (inactive)
[38]
  GI50: 0.082 µM (active)
[39]
  GI50: 15 µM (inactive)
[40]
  GI50: 39.2 µM (inactive)
[41]
  GI50: 38 µM (inactive)
[42]
  GI50: 20.2 µM (inactive)
[43]
  GI50: > 100 µM (inactive)
[44]
  GI50: 26.1 µM (inactive)
[45]
  GI50: 11.3 µM
[46]
  GI50: 29.7 µM (inactive)
[47]
  GI50: 19.8 µM (inactive)
[48]
  GI50: 25.2 µM (inactive)
[49]
  GI50: 34.5 µM (inactive)
[50]
  GI50: 33.2 µM (inactive)
[51]
  GI50: 33 µM (inactive)
[52]
  GI50: 21.8 µM (inactive)
[53]
  GI50: > 100 µM (inactive)
[54]
  GI50: 51.1 µM (inactive)
[55]
  GI50: 42.5 µM (inactive)
[56]
  GI50: 14.7 µM (inactive)
[57]
  GI50: 23.5 µM (inactive)
[58]
  GI50: 8.67 µM (inactive)
[59]
  GI50: 13.9 µM (inactive)

## O=C1OC(=O)C23CSCC12C1C=CC3O1 (stereo unspecified)
[3]
  GI50: > 100 µM (inactive)
[60]
  GI50: > 100 µM (inactive)
[4]
  GI50: > 100 µM (inactive)
[6]
  GI50: > 100 µM (inactive)
[7]
  GI50: > 100 µM (inactive)
[8]
  GI50: > 100 µM (inactive)
[9]
  GI50: > 100 µM (inactive)
[10]
  GI50: > 100 µM (inactive)
[61]
  GI50: > 100 µM (inactive)
[11]
  GI50: > 100 µM (inactive)
[12]
  GI50: > 100 µM (inactive)
[62]
  GI50: > 100 µM (inactive)
[13]
  GI50: > 100 µM (inactive)
[14]
  GI50: > 100 µM (inactive)
[15]
  GI50: > 100 µM (inactive)
[16]
  GI50: > 100 µM (inactive)
[17]
  GI50: > 100 µM (inactive)
[19]
  GI50: > 100 µM (inactive)
[63]
  GI50: > 100 µM (inactive)
[20]
  GI50: > 100 µM (inactive)
[21]
  GI50: > 100 µM (inactive)
[22]
  GI50: > 100 µM (inactive)
[23]
  GI50: > 100 µM (inactive)
[24]
  GI50: > 100 µM (inactive)
[25]
  GI50: > 100 µM (inactive)
[26]
  GI50: > 100 µM (inactive)
[30]
  GI50: > 100 µM (inactive)
[31]
  GI50: > 100 µM (inactive)
[32]
  GI50: > 100 µM (inactive)
[33]
  GI50: > 100 µM (inactive)
[34]
  GI50: > 100 µM (inactive)
[35]
  GI50: > 100 µM (inactive)
[36]
  GI50: > 100 µM (inactive)
[37]
  GI50: > 100 µM (inactive)
[38]
  GI50: > 100 µM (inactive)
[39]
  GI50: > 100 µM (inactive)
[41]
  GI50: > 100 µM (inactive)
[42]
  GI50: > 100 µM (inactive)
[43]
  GI50: > 100 µM (inactive)
[44]
  GI50: > 100 µM (inactive)
[45]
  GI50: > 100 µM
[46]
  GI50: > 100 µM (inactive)
[47]
  GI50: > 100 µM (inactive)
[48]
  GI50: > 100 µM (inactive)
[50]
  GI50: > 100 µM (inactive)
[64]
  GI50: > 100 µM (inactive)
[65]
  GI50: > 100 µM (inactive)
[66]
  GI50: > 100 µM (inactive)
[53]
  GI50: > 100 µM (inactive)
[54]
  GI50: > 100 µM (inactive)
[55]
  GI50: > 100 µM (inactive)
[56]
  GI50: > 100 µM (inactive)
[57]
  GI50: > 100 µM (inactive)
